Assays:
[1] = test system: Radical scavenging activity; experiment: Antioxidant activity assessed as DPPH radical scavenging activity by UV-vis spectrophotometry analysis; type: functional
HT-29 = experiment: Antiproliferative activity against human HT-29 cells after 72 hrs by SRB assay; type: functional, cell-based
PC-3 = experiment: Antiproliferative activity against human PC3 cells after 72 hrs by SRB assay; type: functional, cell-based
MCF7 = experiment: Antiproliferative activity against human MCF7 cells after 72 hrs by SRB assay; type: functional, cell-based; conditions: MCF7, 72 h
[2] = Homo sapiens, HT-29, 72 h, read-out: IC50
[3] = Homo sapiens, PC-3, 72 h, read-out: IC50

SMILES | IC50 [1] | IC50 (HT-29; ht-29) | IC50 (PC-3; pc-3) | IC50 (MCF7) | IC50 (HT-29; [2]) | IC50 (PC-3; [3])
O=C1O[C@H]([C@@H](O)CO)C(O)=C1O [ASCORBIC ACID] | 0.52 µM |  |  |  |  | 
COc1cc(O)c(CC=C(C)C)c(O)c1C(=O)/C=C/c1ccc(O)cc1 [XANTHOHUMOL] | 1.98 µM |  |  |  |  | 

Continued, values first:

IC50 [1] | IC50 (HT-29; ht-29) | IC50 (PC-3; pc-3) | IC50 (MCF7) | IC50 (HT-29; [2]) | IC50 (PC-3; [3]) | SMILES
6.13 µM | Not Active | Not Active | 146 µM |  |  | COc1cc(O[C@@H]2O[C@H](CO)[C@@H](O)[C@H](O)[C@H]2O)c(CC=C(C)C)c2c1C(=O)C[C@@H](c1ccc(O)cc1)O2
9.06 µM |  |  | 19.9 µM | 51.8 µM | 47.9 µM | COc1cc(O[C@@H]2O[C@H](CO)[C@@H](OC)[C@H](O)[C@H]2O)c(CC=C(C)C)c(O)c1C(=O)/C=C/c1ccc(O)cc1
0.77 µM |  |  | 51.4 µM | 63.6 µM | 58.1 µM | COc1cc(O[C@@H]2O[C@H](CO)[C@@H](O)[C@H](O)[C@H]2O)c(CC=C(C)C)c(O)c1C(=O)/C=C/c1ccc(O)cc1 [XANTHOHUMOL-4'-O-BETA-D-GLUCOPYRANOSIDE]

— ChEMBL document CHEMBL2346642, “Antioxidant and antiproliferative activity of glycosides obtained by biotransformation of xanthohumol” (Bioorg Med Chem Lett, 2013)
